The values that follow come from patent US20110288123A1, “FORMULATIONS FOR THE TREATMENT OF ACUTE HERPES ZOSTER PAIN” (priority 2008, published 2011).

A short description of data set [1]: Crystallization of lidocaine in formulation with time. Conditions: lidocaine base formulation; water concentration greater than about 40% w/w. The data set is classed as physicochemical. An excerpt: In this experiment, the water concentration in L504 was maximized in order to develop a more benign vehicle with reduced chance of irritation.
Data set [2] can be described thus: Stinging test (VAS) on tape-stripped forearm skin of subjects. The format is in vivo, human. Conditions: for Subjective Stinging Score, mean: 100 mm VAS, n=10, abraded skin. The text has this: Topical formulations, particularly those that are to be applied to diseased or damaged skin (e.g. cracks, fissures, open blisters, rash, and the like) may produce the sensory perception of stinging, a distinct discomfort to the user. A stinging test can be used to assess whether the novel topical formulations described herein produce a sensory perception of stinging.
For example, the study is designed to assess the sting potential of four topical formulations using a modification of a lactic acid sting assessment method. The test formulations are evaluated on skin that has been partially damaged (e.g. partial removal of the stratum corneum by tape stripping) to simulate diseased skin. Both a positive control (70% isopropyl alcohol) and a negative control (water) can be included to ascertain each subject's ability to sense the stinging sensation.
After providing informed consent, each subject receives a single dose exposure of 5 μL/cm^2 (40 μL/site) of a test formulation to an 8 cm^2 (2 cm×4 cm) surface abraded test site on their forearms (3 sites/arm), for a 10 minute duration. Skin abrasion is produced by repetitive tape stripping until a TEWL (Trans-Epidermal Water-Loss) measurement of 30 g/m^2/hr, or greater, has been achieved (e.g. tape stripping will be performed 15 times followed by a TEWL measurement. If the TEWL is <30 g/m^2/hr, 10 more strips will be collected, if TEWL is still <30 g/m^2/hr, 10 more tape strip will be collected).
Subjects rated stinging, pain and discomfort at the site using a 100 mm visual analogue scale (VAS), one for each individual sensation, immediately after dosing and at 2, 5 and 10 minutes following topical application. Subjects provided a description of the sensations experienced following application of each test article. The subjects responses, measured in mm, were tabulated for each post-dosing assessment for each test sited.

As for `CCN(CC)CC(=O)Nc1c(C)cccc1C` [lidocaine, Lidocaine base], the “crystallization of lidocaine in solution with time” value in data set [1] was “tended to crystallized with time”.

Turning to `CC(C)O` [70% Isopropanol, Isopropyl Alcohol], the “Subjective Stinging Score, mean” value is on record as 3.31 mm in data set [2] (2 Minute after application); 1.87 mm in data set [2] (5 Minute after application); 1.00 mm in data set [2] (10 Minute after application); 10.84 mm in data set [2] (Immediate after application); 12.13 mm in data set [2] (Maximum score). The “stinging response in the stinging test (in words)” value in data set [2] (comparison with water application or LidHCL115a base formulation) was “immediate stinging response is severe, followed by a rapid fall in pain”.
